Laboratory results as given in patent publication US9023789B2, “Amylin analogs and pharmaceutical compositions thereof” (Novo Nordisk A/S, priority 2012, dated 2015).
Numbered stars: 1 amine (or outer) side, 2 acyl side, 3 side chain; on linkers, the order of the positions; unused ones are H or OH. Bridge positions count the residues as written; N and C are the ends. Side chains are listed from the residue outwards. Peptide text beside a SMILES is read from it. * marks the point of attachment. C20 diacid = O=C(O)CCCCCCCCCCCCCCCCCCC(=O)*; γGlu = O=C(O)[C@H](CCC(=O)[*:2])N[*:1]; AEEA = NCCOCCOCC(=O)O

Key:
[1] = molecular target: T1, human amylin receptor (membranes from Amylin 3(a)/CRE-luc cells) (Homo sapiens, UniProt O60896+P30988); test: ASSAY (V) binding to the human amylin receptor (SPA, 125I-rat amylin); details: for IC50: Table 4, read-out: hAmylin-R bind IC50;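 on all read-outs here: competition binding of cell membranes (35 ng/µL) mixed with SPA beads in 384-well plates at 40 µL total volume, read by scintillation counting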
T1 construct: expressed in transfected cells
T1 sequence (P30988 25-474): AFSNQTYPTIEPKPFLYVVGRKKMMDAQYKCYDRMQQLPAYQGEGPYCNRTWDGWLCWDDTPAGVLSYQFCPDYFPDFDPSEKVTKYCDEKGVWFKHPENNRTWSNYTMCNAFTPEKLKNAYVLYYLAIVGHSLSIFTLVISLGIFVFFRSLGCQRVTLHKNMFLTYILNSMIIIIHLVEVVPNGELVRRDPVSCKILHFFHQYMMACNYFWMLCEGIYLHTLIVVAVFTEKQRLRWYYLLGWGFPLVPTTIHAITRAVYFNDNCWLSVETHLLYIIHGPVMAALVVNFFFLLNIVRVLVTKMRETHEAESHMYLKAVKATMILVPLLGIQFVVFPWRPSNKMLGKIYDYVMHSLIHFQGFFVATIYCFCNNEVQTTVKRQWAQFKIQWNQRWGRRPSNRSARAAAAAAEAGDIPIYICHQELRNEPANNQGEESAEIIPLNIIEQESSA
T1 sequence (O60896 24-148 partner): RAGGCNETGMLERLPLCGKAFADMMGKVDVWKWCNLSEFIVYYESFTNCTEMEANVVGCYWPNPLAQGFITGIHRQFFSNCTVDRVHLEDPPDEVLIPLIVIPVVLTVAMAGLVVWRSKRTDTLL

[2] = ASSAY (III) ThT fibrillation assay for physical stability; format: physicochemical
Procedure, shortened: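 Physical stability scored by ThT fluorescence (444 nm excitation, 485 nm emission) tracked every 20 min during 37 °C incubation with 960 rpm shaking, ThT at 1 μM final. Values are replicate means with SD at chosen times; HPLC against pramlintide standard gives initial and post-assay soluble concentrations.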

[3] = molecular target: T2, rat calcitonin receptor (Rattus norvegicus, UniProt P32214); test: ASSAY (VIII) binding to the rat calcitonin receptor; details: Table 7, read-out: rCTR bind IC50
T2 construct: expressed in transfected cells; host or cells: BHK tk'ts 13 (transient, FuGENE 6), membranes
T2 sequence (P32214 25-479 isoform P32214-2 limits assumed): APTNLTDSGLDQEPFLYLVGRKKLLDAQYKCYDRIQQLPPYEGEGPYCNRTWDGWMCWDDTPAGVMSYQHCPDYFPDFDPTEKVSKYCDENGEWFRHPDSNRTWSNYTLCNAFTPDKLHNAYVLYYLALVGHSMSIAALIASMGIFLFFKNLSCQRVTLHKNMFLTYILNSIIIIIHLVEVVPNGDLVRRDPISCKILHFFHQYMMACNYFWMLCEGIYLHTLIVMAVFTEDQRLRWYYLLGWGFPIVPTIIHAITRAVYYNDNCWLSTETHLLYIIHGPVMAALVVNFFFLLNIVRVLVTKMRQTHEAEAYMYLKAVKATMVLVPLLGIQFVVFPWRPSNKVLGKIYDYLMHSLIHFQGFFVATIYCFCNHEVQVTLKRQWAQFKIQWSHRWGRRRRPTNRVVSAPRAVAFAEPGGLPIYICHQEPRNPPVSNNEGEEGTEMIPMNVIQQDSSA
Procedure, shortened: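 Cell membranes for binding came from BHK tk′ts 13 cells harvested approximately 48 hours after transient transfection with the rat receptor.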

[4] = Table 5, selectivity, hCTR bind IC50 / hAmylin-R bind IC50
[5] = Table 7, human binding selectivity, included for comparison
[6] = Table 7a (preferred compounds), human binding selectivity, included for comparison
[7] = Table 5a, selectivity, hCTR bind IC50 / hAmylin-R bind IC50
[8] = Table 5b, selectivity, hCTR bind IC50 / hAmylin-R bind IC50
[9] = Table 5c, selectivity, hCTR bind IC50 / hAmylin-R bind IC50
[10] = ratio of human calcitonin receptor binding IC50 to human amylin receptor binding IC50

IC50 [1]	Ratio hCT/hAmylin binding [1, 4]	Ratio hCT/hAmylin binding [1, 5]	Ratio hCT/hAmylin binding [1, 6]	ThT pH 4.0 lag time (h) [2]	IC50 [3]	Ratio hCT/hAmylin binding [1, 7]	Ratio hCT/hAmylin binding [1, 8]	Ratio hCT/hAmylin binding [1, 9]	Ratio hCT/hAmylin binding [1, 10]	SMILES
1.19 nM	4.3	4.3	4.3	23 h	18.8 nM					CC[C@H](C)[C@H](NC(=O)[C@H](C)NC(=O)CNC(=O)[C@H](Cc1ccccc1)NC(=O)[C@H](CC(N)=O)NC(=O)[C@H](CCCCNC(=O)CC[C@H](NC(=O)CC[C@H](NC(=O)CCCCCCCCCCCCCCCCCCC(=O)O)C(=O)O)C(=O)O)NC(=O)[C@H](CO)NC(=O)[C@H](CO)NC(=O)[C@H](Cc1c[nH]cn1)NC(=O)[C@H](CCCNC(=N)N)NC(=O)[C@H](CC(C)C)NC(=O)[C@H](Cc1ccccc1)NC(=O)[C@H](CC(=O)O)NC(=O)[C@H](C)NC(=O)[C@H](CC(C)C)NC(=O)[C@H](CCCNC(=N)N)NC(=O)[C@H](CCC(N)=O)NC(=O)[C@@H](NC(=O)[C@H](C)NC(=O)[C@@H]1CSSC[C@H](NC(=O)[C@@H](N)CCCCN)C(=O)N[C@@H](CC(N)=O)C(=O)N[C@@H]([C@@H](C)O)C(=O)N[C@@H](C)C(=O)N[C@@H]([C@@H](C)O)C(=O)N1)[C@@H](C)O)C(=O)N1CCC[C@H]1C(=O)N[C@@H](CO)C(=O)N[C@@H](CO)C(=O)N[C@H](C(=O)N[C@@H](CC(N)=O)C(=O)N[C@H](C(=O)NCC(=O)N[C@@H](CO)C(=O)N[C@@H](CC(=O)O)C(=O)N[C@H](C(=O)N[C@@H](Cc1ccc(O)cc1)C(N)=O)[C@@H](C)O)C(C)C)[C@@H](C)O [Example 59] (H-KCNTATCATQRLADFLRHSSK([γGlu-γGlu-C20 diacid])NFGAIPSSTNVGSDTY-NH2; disulfide 2-7; N-terminus assumed)
	157.1	157.1	157.1	45 h	124 nM	157.1	157.1	157.1	157.1	CC[C@H](C)[C@H](NC(=O)[C@H](C)NC(=O)CNC(=O)[C@H](Cc1ccccc1)NC(=O)[C@H](CC(N)=O)NC(=O)[C@@H]1CCCN1C(=O)[C@H](CO)NC(=O)[C@H](CO)NC(=O)[C@H](Cc1c[nH]cn1)NC(=O)[C@H](CCCNC(=N)N)NC(=O)[C@H](CC(C)C)NC(=O)[C@H](Cc1ccccc1)NC(=O)[C@H](CCCNC(=N)N)NC(=O)[C@H](C)NC(=O)[C@H](CC(C)C)NC(=O)[C@H](CCCNC(=N)N)NC(=O)[C@H](CCC(N)=O)NC(=O)[C@@H](NC(=O)[C@H](C)NC(=O)[C@@H]1CSSC[C@H](NC(=O)[C@@H](N)CCCCNC(=O)CC[C@H](NC(=O)CCCCCCCCCCCCCCCCCCC(=O)O)C(=O)O)C(=O)N[C@@H](CC(N)=O)C(=O)N[C@@H]([C@@H](C)O)C(=O)N[C@@H](C)C(=O)N[C@@H]([C@@H](C)O)C(=O)N1)[C@@H](C)O)C(=O)N1CCC[C@H]1C(=O)N[C@@H](CO)C(=O)N[C@@H](CO)C(=O)N[C@H](C(=O)N1CCC[C@H]1C(=O)N[C@H](C(=O)NCC(=O)N[C@@H](CO)C(=O)N[C@@H](CC(N)=O)C(=O)N[C@H](C(=O)N[C@@H](Cc1ccc(O)cc1)C(N)=O)[C@@H](C)O)C(C)C)[C@@H](C)O [Example 63] (H-K([γGlu-C20 diacid])CNTATCATQRLARFLRHSSPNFGAIPSSTPVGSNTY-NH2; disulfide 2-7 (inferred); N-terminus assumed)
0.396 nM	45.5	45.5	45.5	45 h	20.8 nM	45.5	45.5	45.5	45.5	CC[C@H](C)[C@H](NC(=O)[C@H](C)NC(=O)CNC(=O)[C@H](Cc1ccccc1)NC(=O)[C@H](CC(N)=O)NC(=O)[C@@H]1CCCN1C(=O)[C@H](CO)NC(=O)[C@H](CO)NC(=O)[C@H](Cc1c[nH]cn1)NC(=O)[C@H](CCCNC(=N)N)NC(=O)[C@H](CC(C)C)NC(=O)[C@H](Cc1ccccc1)NC(=O)[C@H](Cc1c[nH]cn1)NC(=O)[C@H](C)NC(=O)[C@H](CC(C)C)NC(=O)[C@H](CCCNC(=N)N)NC(=O)[C@H](CCC(N)=O)NC(=O)[C@@H](NC(=O)[C@H](C)NC(=O)[C@@H]1CSSC[C@H](NC(=O)[C@@H](N)CCCCNC(=O)CC[C@H](NC(=O)CCCCCCCCCCCCCCCCCCC(=O)O)C(=O)O)C(=O)N[C@@H](CC(N)=O)C(=O)N[C@@H]([C@@H](C)O)C(=O)N[C@@H](C)C(=O)N[C@@H]([C@@H](C)O)C(=O)N1)[C@@H](C)O)C(=O)N1CCC[C@H]1C(=O)N[C@@H](CO)C(=O)N[C@@H](CO)C(=O)N[C@H](C(=O)N[C@@H](CC(N)=O)C(=O)N[C@H](C(=O)NCC(=O)N[C@@H](CO)C(=O)N[C@@H](Cc1c[nH]cn1)C(=O)N[C@H](C(=O)N[C@@H](Cc1ccc(O)cc1)C(N)=O)[C@@H](C)O)C(C)C)[C@@H](C)O [Example 66] (H-K([γGlu-C20 diacid])CNTATCATQRLAHFLRHSSPNFGAIPSSTNVGSHTY-NH2; disulfide 2-7; N-terminus assumed)
0.133 nM	65.3	65.3	65.3	22 h	46.8 nM	65.3	65.3	65.3	65.3	CC[C@H](C)[C@H](NC(=O)[C@H](C)NC(=O)CNC(=O)[C@H](Cc1ccccc1)NC(=O)[C@H](CC(N)=O)NC(=O)[C@@H]1CCCN1C(=O)[C@H](CO)NC(=O)[C@H](CO)NC(=O)[C@H](Cc1c[nH]cn1)NC(=O)[C@H](CCCNC(=N)N)NC(=O)[C@H](CC(C)C)NC(=O)[C@H](Cc1ccccc1)NC(=O)[C@H](Cc1c[nH]cn1)NC(=O)[C@H](C)NC(=O)[C@H](CC(C)C)NC(=O)[C@H](CCCNC(=N)N)NC(=O)[C@H](CCC(N)=O)NC(=O)[C@@H](NC(=O)[C@H](C)NC(=O)[C@@H]1CSSC[C@H](NC(=O)[C@@H](N)CCCCNC(=O)COCCOCCNC(=O)CC[C@H](NC(=O)CCCCCCCCCCCCCCCCCCC(=O)O)C(=O)O)C(=O)N[C@@H](CC(N)=O)C(=O)N[C@@H]([C@@H](C)O)C(=O)N[C@@H](C)C(=O)N[C@@H]([C@@H](C)O)C(=O)N1)[C@@H](C)O)C(=O)N1CCC[C@H]1C(=O)N[C@@H](CO)C(=O)N[C@@H](CO)C(=O)N[C@H](C(=O)N[C@@H](CC(N)=O)C(=O)N[C@H](C(=O)NCC(=O)N[C@@H](CO)C(=O)N[C@@H](CC(N)=O)C(=O)N[C@H](C(=O)N[C@@H](Cc1ccc(O)cc1)C(N)=O)[C@@H](C)O)C(C)C)[C@@H](C)O [Example 69] (H-K([AEEA-γGlu-C20 diacid])CNTATCATQRLAHFLRHSSPNFGAIPSSTNVGSNTY-NH2; disulfide 2-7; N-terminus assumed)
